From ChEMBL document CHEMBL1201862, “PubChem BioAssay data set” (2004)
“And” between values parts separate entries of the source, which are not always exact repeats. Identical values can stand only once.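 Five compound concentrations were applied to cells in 96-well plates for 48 hours; endpoints were derived by simple linear interpolation of the resulting dose-response curve. GI50 marks 50% less growth.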 The source made the active and inactive calls. Cut-off read from the data, not from the text of the source: active = GI50 up to about 1.1 µM and inactive = higher.

Legend:
Test in all cases: NCI tumour cell line growth inhibition, 48 h
[1] = system: OVCAR-3
[2] = system: M14
[3] = system: LOX IMVI
[4] = system: ACHN
[5] = system: OVCAR-5
[6] = system: SK-MEL-28
[7] = system: RXF 631
[8] = system: RXF 393
[9] = system: SN12C
[10] = system: HL-60
[11] = system: MOLT-4
[12] = system: HOP-92
[13] = system: UACC-62
[14] = system: SR
[15] = system: TK-10
[16] = system: IGROV-1
[17] = system: KM12
[18] = system: COLO 205
[19] = system: HCC 2998
[20] = system: SK-OV-3
[21] = system: DLD-1
[22] = system: A549
[23] = system: SK-MEL-5
[24] = system: UO-31
[25] = system: U-251
[26] = system: SNB-78
[27] = system: NCI-H522
[28] = system: SNB-75
[29] = system: M19-MEL
[30] = system: SF-295
[31] = system: HCT-116
[32] = system: SF-268
[33] = system: K562
[34] = system: XF498
[35] = system: DMS-273
[36] = system: NCI-H226
[37] = system: CAKI-1
[38] = system: RPMI-8226
[39] = system: NCI-H23
[40] = system: SK-MEL-2
[41] = system: LXFL 529
[42] = system: HOP-18
[43] = system: UACC-257
[44] = system: SNB-19
[45] = system: EKVX
[46] = system: Malme-3M
[47] = system: OVCAR-4
[48] = system: DMS-114
[49] = system: NCI-H460
[50] = system: SF-539
[51] = system: KM-20L2
[52] = system: A498
[53] = system: 786-0
[54] = system: CCRF-CEM
[55] = system: HOP-62
[56] = system: SW-620
[57] = system: OVCAR-8
[58] = system: HT-29
[59] = system: HCT-15
[60] = system: T47D
[61] = system: PC-3
[62] = system: MDA-MB-435
[63] = system: DU-145
[64] = system: MDA-MB-231
[65] = system: BT-549
[66] = system: Hs-578T
[67] = system: MCF7
[68] = system: MDA-N
[69] = system: NCI/ADR-RES

O=C1[C@@H]2C(c3ccccc3F)=NO[C@@H]2C(=O)N1c1ccc(Cc2ccc(N3C(=O)[C@H]4C(c5ccccc5F)=NO[C@H]4C3=O)cc2)cc1
GI50 [1]: > 100 µM (inactive)
GI50 [2]: > 100 µM (inactive)
GI50 [3]: > 100 µM (inactive)
GI50 [4]: > 100 µM (inactive)
GI50 [5]: > 100 µM (inactive)
GI50 [6]: > 100 µM (inactive)
GI50 [7]: > 100 µM (inactive)
GI50 [8]: > 43.7 µM (inactive)
GI50 [9]: > 100 µM (inactive)
GI50 [10]: 14.4 µM (inactive)
GI50 [11]: 19.6 µM (inactive)
GI50 [12]: 34.4 µM (inactive)
GI50 [13]: > 100 µM (inactive)
GI50 [14]: 34.1 µM (inactive)
GI50 [15]: > 31.6 µM (inactive)
GI50 [16]: > 100 µM (inactive)
GI50 [17]: > 100 µM (inactive)
GI50 [18]: > 100 µM (inactive)
GI50 [19]: > 100 µM (inactive)
GI50 [20]: > 100 µM (inactive)
GI50 [21]: > 100 µM (inactive)
GI50 [22]: > 100 µM (inactive)
GI50 [23]: > 100 µM (inactive)
GI50 [24]: > 100 µM (inactive)
GI50 [25]: > 100 µM (inactive)
GI50 [26]: > 100 µM (inactive)
GI50 [27]: > 100 µM (inactive)
GI50 [28]: > 100 µM (inactive)
GI50 [29]: > 100 µM (inactive)
GI50 [30]: > 100 µM (inactive)
GI50 [31]: > 100 µM (inactive)
GI50 [32]: > 100 µM (inactive)
GI50 [33]: > 55.1 µM (inactive)
GI50 [34]: > 87.3 µM (inactive)
GI50 [35]: > 100 µM (inactive)
GI50 [36]: > 100 µM (inactive)
GI50 [37]: > 100 µM (inactive)
GI50 [38]: 29.4 µM (inactive)
GI50 [39]: > 100 µM (inactive)
GI50 [40]: > 100 µM (inactive)
GI50 [41]: > 100 µM (inactive)
GI50 [42]: > 100 µM (inactive)
GI50 [43]: > 100 µM (inactive)
GI50 [44]: > 100 µM (inactive)
GI50 [45]: > 100 µM (inactive)
GI50 [46]: > 100 µM (inactive)
GI50 [47]: > 100 µM (inactive)
GI50 [48]: > 100 µM (inactive)
GI50 [49]: > 100 µM (inactive)
GI50 [50]: > 100 µM (inactive)
GI50 [51]: > 100 µM (inactive)
GI50 [52]: > 100 µM (inactive)
GI50 [53]: > 100 µM (inactive)
GI50 [54]: 16 µM (inactive)
GI50 [55]: > 100 µM (inactive)
GI50 [56]: > 75.7 µM (inactive)
GI50 [57]: > 100 µM (inactive)
GI50 [58]: > 100 µM (inactive)
GI50 [59]: > 100 µM

CN(C)CCC(=O)N1C/C(=C/c2ccccc2)C(=O)/C(=C\c2ccccc2)C1
GI50 [1]: 2.59 µM (inactive)
GI50 [2]: 1.91 µM (inactive)
GI50 [3]: 0.436 µM (active)
GI50 [4]: 2.01 µM (inactive)
GI50 [5]: 2.6 µM (inactive)
GI50 [6]: 1.58 µM (inactive)
GI50 [7]: 2.29 µM (inactive)
GI50 [8]: 2.11 µM (inactive)
GI50 [9]: 1.25 µM (inactive)
GI50 [10]: 0.356 µM (active)
GI50 [11]: 0.313 µM (active)
GI50 [12]: 7.11 µM (inactive)
GI50 [13]: 1.53 µM (inactive)
GI50 [14]: 0.386 µM (active)
GI50 [15]: 8.15 µM (inactive)
GI50 [16]: 2.59 µM (inactive)
GI50 [17]: 0.55 µM (active)
GI50 [18]: 2.24 µM (inactive)
GI50 [60]: 4.82 µM (inactive)
GI50 [19]: 1.06 µM (active)
GI50 [20]: 6.25 µM (inactive)
GI50 [21]: 0.931 µM (active)
GI50 [22]: 4.7 µM (inactive)
GI50 [23]: 1.45 µM (inactive)
GI50 [24]: 2.36 µM (inactive)
GI50 [25]: 0.662 µM (active)
GI50 [26]: 3 µM (inactive)
GI50 [27]: 0.301 µM (active)
GI50 [28]: 4.74 µM (inactive)
GI50 [29]: 0.834 µM (active)
GI50 [30]: 2.93 µM (inactive)
GI50 [31]: 0.447 µM (active)
GI50 [61]: 1.54 µM (inactive)
GI50 [32]: 2.74 µM (inactive)
GI50 [33]: 0.182 µM (active)
GI50 [34]: 2.5 µM (inactive)
GI50 [35]: 1.55 µM (inactive)
GI50 [36]: 5.55 µM (inactive)
GI50 [37]: 2.41 µM (inactive)
GI50 [62]: 1.43 µM (inactive)
GI50 [38]: 0.134 µM (active)
GI50 [39]: 2.29 µM (inactive)
GI50 [40]: 2.95 µM (inactive)
GI50 [63]: 6.79 µM (inactive)
GI50 [41]: 1.92 µM (inactive)
GI50 [42]: 4.46 µM (inactive)
GI50 [43]: 2.08 µM (inactive)
GI50 [44]: 2.48 µM (inactive)
GI50 [45]: 3.78 µM (inactive)
GI50 [46]: 2.16 µM (inactive)
GI50 [64]: 0.735 µM (active)
GI50 [47]: 2.17 µM (inactive)
GI50 [65]: 0.883 µM (active)
GI50 [48]: 1.41 µM (inactive)
GI50 [49]: 2.33 µM (inactive)
GI50 [66]: 3.55 µM (inactive)
GI50 [67]: 0.349 µM (active)
GI50 [50]: 3.91 µM (inactive)
GI50 [51]: 0.998 µM (active)
GI50 [52]: 3.12 µM (inactive)
GI50 [53]: 1.49 µM (inactive)
GI50 [68]: 1.14 µM (inactive)
GI50 [54]: 0.191 µM (active)
GI50 [55]: 7.31 µM (inactive)
GI50 [56]: 0.275 µM (active)
GI50 [57]: 1.03 µM (active)
GI50 [58]: 0.679 µM (active)
GI50 [59]: 1.05 µM

COc1ccc(OC)c(/C=C/[N+](=O)[O-])c1
GI50 [1]: 2.14 µM (inactive) and 1.75 µM (inactive)
GI50 [2]: 1.98 µM (inactive) and 3.36 µM (inactive)
GI50 [3]: 1.84 µM (inactive) and 948 nM (active)
GI50 [4]: 1.82 µM (inactive) and 2.21 µM (inactive)
GI50 [6]: 2.01 µM (inactive) and 3.48 µM (inactive)
GI50 [7]: 2.83 µM (inactive)
GI50 [8]: 1.12 µM (inactive) and 2.05 µM (inactive)
GI50 [9]: 2.44 µM (inactive) and 3.77 µM (inactive)
GI50 [12]: 4.35 µM (inactive) and 3.05 µM (inactive)
GI50 [18]: 2.04 µM (inactive) and 3.15 µM (inactive)
GI50 [60]: 3.01 µM (inactive)
GI50 [20]: 5.53 µM (inactive) and 4.7 µM (inactive)
GI50 [21]: 2.88 µM (inactive)
GI50 [22]: 3.24 µM (inactive) and 5.79 µM (inactive)
GI50 [23]: 3.29 µM (inactive) and 2.33 µM (inactive)
GI50 [24]: 1.74 µM (inactive) and 2.77 µM (inactive)
GI50 [25]: 2.56 µM (inactive) and 3.76 µM (inactive)
GI50 [26]: 6.84 µM (inactive)
GI50 [27]: 1.63 µM (inactive) and 1.16 µM (inactive)
GI50 [28]: 6.64 µM (inactive) and 4.62 µM (inactive)
GI50 [29]: 2.39 µM (inactive)
GI50 [30]: 5.24 µM (inactive) and 3.46 µM (inactive)
GI50 [31]: 1.85 µM (inactive) and 3.13 µM (inactive)
GI50 [32]: 3.01 µM (inactive) and 4.54 µM (inactive)
GI50 [33]: 2.59 µM (inactive) and 2.83 µM (inactive)
GI50 [34]: 2.94 µM (inactive)
GI50 [35]: 2.61 µM (inactive)
GI50 [37]: 2.85 µM (inactive) and 2.45 µM (inactive)
GI50 [62]: 2.37 µM (inactive)
GI50 [38]: 1.39 µM (inactive) and 845 nM (active)
GI50 [39]: 4.02 µM (inactive) and 2.41 µM (inactive)
GI50 [40]: 2.41 µM (inactive) and 4.62 µM (inactive)
GI50 [63]: 3.33 µM (inactive) and 3.03 µM (inactive)
GI50 [41]: 1.91 µM (inactive)
GI50 [42]: 1.85 µM (inactive)
GI50 [69]: 2.96 µM (inactive)
GI50 [43]: 4.1 µM (inactive) and 3.92 µM (inactive)
GI50 [44]: 3.44 µM (inactive) and 4.23 µM (inactive)
GI50 [64]: 1.87 µM (inactive)
GI50 [47]: 4.31 µM (inactive) and 2.8 µM (inactive)
GI50 [65]: 3.67 µM (inactive)
GI50 [48]: 4.74 µM (inactive)
GI50 [49]: 3.24 µM (inactive) and 5.48 µM (inactive)
GI50 [66]: 4 µM (inactive)
GI50 [67]: 2.32 µM (inactive)
GI50 [50]: 3.6 µM (inactive) and 2.89 µM (inactive)
GI50 [51]: 4.69 µM (inactive)
GI50 [52]: 3.92 µM (inactive) and 3.94 µM (inactive)
GI50 [53]: 1.79 µM (inactive) and 1.57 µM (inactive)
GI50 [68]: 3.16 µM (inactive)
GI50 [54]: 1.01 µM (active) and 1.58 µM (inactive)
GI50 [55]: 4.93 µM (inactive) and 2.78 µM (inactive)
GI50 [56]: 3 µM (inactive) and 2.2 µM (inactive)
GI50 [57]: 5.6 µM (inactive) and 4.23 µM (inactive)
GI50 [58]: 3.47 µM (inactive) and 2.49 µM (inactive)
GI50 [59]: 3.37 µM and 2.75 µM
